Bounds are passed on as bounds.

Sequence of PKBα (P31749 118-480 limits assumed): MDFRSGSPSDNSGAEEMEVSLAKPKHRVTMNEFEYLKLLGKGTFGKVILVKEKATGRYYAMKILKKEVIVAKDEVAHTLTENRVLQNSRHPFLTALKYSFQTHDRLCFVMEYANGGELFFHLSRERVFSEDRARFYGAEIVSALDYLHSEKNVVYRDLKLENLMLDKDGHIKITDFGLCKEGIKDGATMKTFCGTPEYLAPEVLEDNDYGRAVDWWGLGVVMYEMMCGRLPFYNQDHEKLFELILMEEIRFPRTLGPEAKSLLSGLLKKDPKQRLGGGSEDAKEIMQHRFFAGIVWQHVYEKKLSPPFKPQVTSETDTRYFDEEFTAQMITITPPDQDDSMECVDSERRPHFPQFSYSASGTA

This assay has as its target PKBα (Homo sapiens, UniProt P31749). In words: PKB kinase assay (P33-labeled ATP, peptide substrate, filter plate). The assay is classed as biochemical. To be noted: PKBα enzyme (full length or kinase domain with pleckstrin domain deleted). The source says:
The kinase assay for evaluating PKB activity comprises active PKB enzymes, a PKB specific substrate, and P^33-labeled ATP. […] The phosphorylated substrate was captured by a phosphocellulose membrane filter plate (MLLIPORE) and measured by a Wallac Microbeta liquid scintillation counter (Perkin Elmer).
Molecule `Cc1nc(NC[C@@H](N)Cc2ccc(C(F)(F)F)cc2)sc1-c1nc2ccncc2s1` [Example 24, N—((S)-2-amino-3-(4-(trifluoromethyl)phenyl)propyl)-4-methyl-5-(thiazolo[5,4-c]pyridin-2-yl)thiazol-2-amine] gave an IC50 of 50 to 1000 nM. For `COCc1nc(N(C[C@@H](N)Cc2ccc(Cl)cc2)C(C)=O)sc1-c1nc2ccncc2s1` [Example 25, N—((S)-2-amino-3-(4-chlorophenyl)propyl)-N-(4-(methoxymethyl)-5-(thiazolo[5,4-c]pyridin-2-yl)thiazol-2-yl)acetamide] the value was 50 to 1000 nM; for `COCc1nc(N(C[C@@H](N)Cc2ccc(C(F)(F)F)cc2)C(C)=O)sc1-c1nc2ccncc2s1` [Example 26, N—((S)-2-amino-3-(4-(trifluoromethyl)phenyl)propyl)-N-(4-(methoxymethyl)-5-(thiazolo[5,4-c]pyridin-2-yl)thiazol-2-yl)acetamide], 1000 to 10000 nM; for `COCc1nc(NC[C@@H](N)Cc2c[nH]c3ccccc23)sc1-c1nc2ccncc2s1` [Example 27, N—((S)-2-amino-3-(1H-indol-3-yl)propyl)-4-(methoxymethyl)-5-(thiazolo[5,4-c]pyridin-2-yl)thiazol-2-amine], 50 to 1000 nM. As for `c1ccc(CNc2ncc(-c3nc4ccncc4s3)s2)cc1` [Example 28, N-benzyl-5-(thiazolo[5,4-c]pyridin-2-yl)thiazol-2-amine], the figure is 1000 to 10000 nM; as for `N[C@@H](Cc1cccc(C(F)(F)F)c1)CN(Cc1ccccc1)c1ncc(-c2nc3ccncc3s2)s1` [Example 29, N—((S)-2-amino-3-(3-(trifluoromethyl)phenyl)propyl)-N-benzyl-5-(thiazolo[5,4-c]pyridin-2-yl)thiazol-2-amine], 1000 to 10000 nM; as for `N[C@@H](Cc1ccc(C(F)(F)F)cc1)CN(Cc1ccccc1)c1ncc(-c2nc3ccncc3s2)s1` [Example 30, N—((S)-2-amino-3-(4-(trifluoromethyl)phenyl)propyl)-N-benzyl-5-(thiazolo[5,4-c]pyridin-2-yl)thiazol-2-amine], 50 to 1000 nM. In the case of `N[C@H](CNc1ncc(-c2nc3ccncc3s2)s1)Cc1cccc(C(F)(F)F)c1` [Example 31, N—((S)-2-amino-3-(3-(trifluoromethyl)phenyl)propyl)-5-(thiazolo[5,4-c]pyridin-2-yl)thiazol-2-amine], the 50% inhibitory concentration (IC50) was 1000 to 10000 nM. In turn, `N[C@H](CNc1ncc(-c2nc3ccncc3s2)s1)Cc1ccc(C(F)(F)F)cc1` [Example 32, N—((S)-2-amino-3-(4-(trifluoromethyl)phenyl)propyl)-5-(thiazolo[5,4-c]pyridin-2-yl)thiazol-2-amine] yielded an IC50 of less than 50 nM. For `COCc1nc(N(C[C@H](Cc2ccc(C(F)(F)F)cc2)NCCN2CCOCC2)C(C)=O)sc1-c1nc2ccncc2s1` [Example 33, N-(4-(methoxymethyl)-5-(thiazolo[5,4-c]pyridin-2-yl)thiazol-2-yl)-N—((S)-2-(2-morpholinoethylamino)-3-(4-(trifluoromethyl)phenyl)propyl)acetamide] the value was more than 10000 nM; for `COCc1nc(NC[C@H](Cc2ccc(C(F)(F)F)cc2)NCCN2CCOCC2)sc1-c1nc2ccncc2s1` [Example 34, 4-(Methoxymethyl)-N—((S)-2-(2-morpholinoethylamino)-3-(4-(trifluoromethyl)phenyl)propyl)-5-(thiazolo[5,4-c]pyridin-2-yl)thiazol-2-amine], 50 to 1000 nM; for `N[C@H](CNc1ncc(-c2ccc3[nH]c(=O)sc3c2)s1)Cc1c[nH]c2ccccc12` [Example 35, 6-(2-((S)-2-amino-3-(1H-indol-3-yl)propylamino)thiazol-5-yl)benzo[d]thiazol-2(3H)-one], 50 to 1000 nM. As for `N[C@H](CNc1ncc(-c2ccc3c(c2)CCC(=O)N3)s1)Cc1ccc(C(F)(F)F)cc1` [Example 36, 6-(2-((S)-2-amino-3-(4-(trifluoromethyl)phenyl)propylamino)thiazol-5-yl)-3,4-dihydroquinolin-2(1H)-one], the figure is 1000 to 10000 nM; as for `Nc1n[nH]c2ccc(-c3cnc(NC[C@@H](N)Cc4c[nH]c5ccccc45)s3)cc12` [Example 37, 5-(2-((S)-2-amino-3-(1H-indol-3-yl)propylamino)thiazol-5-yl)-1H-indazol-3-amine], 1000 to 10000 nM. Take `Nc1noc2ccc(-c3cnc(NC[C@@H](N)Cc4c[nH]c5ccccc45)s3)cc12` [Example 38, 5-(2-((S)-2-amino-3-(1H-indol-3-yl)propylamino)thiazol-5-yl)benzo[d]isoxazol-3-amine]: the IC50 lay in the range of 50 to 1000 nM. For `N[C@H](CNc1ncc(-c2ccc3[nH]c(=O)oc3c2)s1)Cc1c[nH]c2ccccc12` [Example 39, 6-(2-((S)-2-amino-3-(1H-indol-3-yl)propylamino)thiazol-5-yl)benzo[d]oxazol-2(3H)-one] the value was 50 to 1000 nM. For `N[C@H](CNc1ncc(-c2ccc3[nH]c(=O)oc3c2)s1)Cc1ccc(C(F)(F)F)cc1` [Example 40, 6-(2-((S)-2-amino-3-(4-(trifluoromethyl)phenyl)propylamino)thiazol-5-yl)benzo[d]oxazol-2(3H)-one] the value was less than 50 nM. Consider `N[C@H](CNc1ncc(-c2ccc3c(c2)C(F)(F)C(=O)N3)s1)Cc1ccc(C(F)(F)F)cc1` [Example 41, 5-(2-((S)-2-amino-3-(4-(trifluoromethyl)phenyl)propylamino)thiazol-5-yl)-3,3-difluoroindolin-2-one], for which the IC50 was in the range of 50 to 1000 nM. For `N[C@H](CNc1ncc(-c2ccc3c(c2)CC(=O)N3)s1)Cc1ccc(C(F)(F)F)cc1` [Example 42, 5-(2-((S)-2-amino-3-(4-(trifluoromethyl)phenyl)propylamino)thiazol-5-yl)indolin-2-one] the value was less than 50 nM; for `N[C@H](CNc1ncc(-c2ccc3[nH]c(=O)sc3c2)s1)Cc1ccc(C(F)(F)F)cc1` [Example 43, 6-(2-((S)-2-amino-3-(4-(trifluoromethyl)phenyl)propylamino)thiazol-5-yl)benzo[d]thiazol-2(3H)-one], less than 50 nM; for `N[C@H](CNc1ncc(-c2ccc3c(c2)CC(=O)N3)s1)Cc1cccc(C(F)(F)F)c1` [Example 44, 5-(2-((S)-2-amino-3-(3-(trifluoromethyl)phenyl)propylamino)thiazol-5-yl)indolin-2-one], 50 to 1000 nM. As for `CNc1n[nH]c2ccc(-c3cnc(NC[C@@H](N)Cc4c[nH]c5ccccc45)s3)cc12` [Example 45, 5-(2-((S)-2-amino-3-(1H-indol-3-yl)propylamino)thiazol-5-yl)-N-methyl-1H-indazol-3-amine], the IC50 was 1000 to 10000 nM. Molecule `N[C@H](CNc1ncc(-c2ccc3[nH]c(=O)oc3c2)s1)Cc1cccc(C(F)(F)F)c1` [Example 46, 6-(2-((S)-2-amino-3-(3-(trifluoromethyl)phenyl)propylamino)thiazol-5-yl)benzo[d]oxazol-2(3H)-one] had an IC50 of 50 to 1000 nM. For the molecule `CC1C(=O)Nc2ccc(-c3cnc(NC[C@@H](N)Cc4ccc(C(F)(F)F)cc4)s3)cc21` (stereo partly drawn) [Example 47, 5-(2-((S)-2-amino-3-(4-(trifluoromethyl)phenyl)propylamino)thiazol-5-yl)-3-methylindolin-2-one], the IC50 was in the range of 50 to 1000 nM. For `N[C@H](CNc1ncc(-c2ccc3cn[nH]c3c2)s1)Cc1ccc(C(F)(F)F)cc1` [Example 48, N—((S)-2-amino-3-(4-(trifluoromethyl)phenyl)propyl)-5-(1H-indazol-6-yl)thiazol-2-amine] the value was 50 to 1000 nM; for `NC(=O)c1ccc(-c2cnc(NC[C@@H](N)Cc3ccc(C(F)(F)F)cc3)s2)cc1` [Example 49, (S)-4-(2-(2-amino-3-(4-(trifluoromethyl)phenyl)propylamino)thiazol-5-yl)benzamide], 1000 to 10000 nM; for `Nc1n[nH]c2ccc(-c3cnc(NC[C@@H](N)Cc4ccc(C(F)(F)F)cc4)s3)cc12` [Example 50, 5-(2-((S)-2-amino-3-(4-(trifluoromethyl)phenyl)propylamino)thiazol-5-yl)-1H-indazol-3-amine], 50 to 1000 nM. For `Nc1noc2ccc(-c3cnc(NC[C@@H](N)Cc4ccc(C(F)(F)F)cc4)s3)cc12` [Example 51, 5-(2-((S)-2-amino-3-(4-(trifluoromethyl)phenyl)propylamino)thiazol-5-yl)benzo[d]isoxazol-3-amine] the value was 50 to 1000 nM. For `Nc1n[nH]c2cc(-c3cnc(NC[C@@H](N)Cc4ccc(C(F)(F)F)cc4)s3)ccc12` [Example 52, 6-(2-((S)-2-amino-3-(4-(trifluoromethyl)phenyl)propylamino)thiazol-5-yl)-1H-indazol-3-amine] the value was 1000 to 10000 nM. `Cn1nc(N)c2ccc(-c3cnc(NC[C@@H](N)Cc4ccc(C(F)(F)F)cc4)s3)cc21` [Example 53, 6-(2-((S)-2-amino-3-(4-(trifluoromethyl)phenyl)propylamino)thiazol-5-yl)-1-methyl-1H-indazol-3-amine] showed a concentration for half-maximal inhibition (IC50) of 1000 to 10000 nM. For `N[C@H](CNc1ncc(-c2ccc3c(c2)CC(=O)N3)s1)Cc1ccc(Cl)cc1` [Example 54, 5-(2-((S)-2-Amino-3-(4-chlorophenyl)propylamino)thiazol-5-yl)indolin-2-one] the value was less than 50 nM. Consider `N[C@H](CNc1ncc(-c2ccc3[nH]c(=O)oc3c2)s1)Cc1ccc(Cl)cc1` [Example 55, 6-(2-((S)-2-Amino-3-(4-chlorophenyl)propylamino)thiazol-5-yl)benzo[d]oxazol-2(3H)-one], for which the 50% inhibitory concentration (IC50) is less than 50 nM. For `CNCc1nc(NC[C@@H](N)Cc2ccc(C(F)(F)F)cc2)sc1-c1ccc2cnccc2c1` [Example 56, N—((S)-2-amino-3-(4-(trifluoromethyl)phenyl)propyl)-5-(isoquinolin-6-yl)-4-((methylamino)methyl)thiazol-2-amine] the value was 50 to 1000 nM. For `Cn1c(=O)[nH]c2ccc(-c3cnc(NC[C@@H](N)Cc4ccc(C(F)(F)F)cc4)s3)cc21` [Example 57, 6-(2-((S)-2-amino-3-(4-(trifluoromethyl)phenyl)propylamino)thiazol-5-yl)-1-methyl-1H-benzo[d]imidazol-2(3H)-one] the value was less than 50 nM.

These data come from US8084479B2, “Thiazole compounds and methods of use” (Amgen Inc., priority 2006, dated 2011).
